Test results: DBAASP
≈ marks a conversion by molar mass, not a printed value.

Tests used:
Test in all cases: ≥ marks a high value that may be exact or a test limit, other limits are often not marked, values filed in µg/mL are converted to µM
[1] = test system: Acinetobacter baumannii CCARM 12005
[2] = test system: Acinetobacter baumannii CCARM 12035
[3] = test system: Acinetobacter baumannii CCARM 12036
[4] = test system: Acinetobacter baumannii CCARM 12037
[5] = test system: Bacillus subtilis KCTC 1021
[6] = test system: Bacillus subtilis KCTC 1022
[7] = test system: Bacillus subtilis KCTC 3068
[8] = test system: Escherichia coli CCARM 1229
[9] = test system: Escherichia coli CCARM 1238
[10] = test system: Escherichia coli KCTC 1682
[11] = test system: Escherichia coli KCTC 2571
[12] = test system: Escherichia coli KCTC 2593
[13] = test system: Pseudomonas aeruginosa CCARM 2002
[14] = test system: Pseudomonas aeruginosa CCARM 2003
[15] = test system: Pseudomonas aeruginosa CCARM 2095
[16] = test system: Pseudomonas aeruginosa CCARM 2163
[17] = test system: Pseudomonas aeruginosa KCTC 1637
[18] = test system: Pseudomonas aeruginosa KCTC 2004
[19] = test system: Pseudomonas aeruginosa KCTC 2513
[20] = test system: Salmonella typhimurium CCARM 8003
[21] = test system: Salmonella typhimurium CCARM 8007
[22] = test system: Salmonella typhimurium CCARM 8009
[23] = test system: Salmonella typhimurium KCTC 1926
[24] = test system: Staphylococcus aureus CCARM 3089
[25] = test system: Staphylococcus aureus CCARM 3090
[26] = test system: Staphylococcus aureus CCARM 3108
[27] = test system: Staphylococcus aureus CCARM 3114
[28] = test system: Staphylococcus aureus CCARM 3126
[29] = test system: Staphylococcus aureus KCTC 1621
[30] = test system: Staphylococcus aureus KCTC 1916
[31] = test system: Staphylococcus aureus KCTC 3881
[32] = test system: Staphylococcus epidermidis KCTC 1917
[33] = test system: Enterococcus faecalis ATCC 29212
[34] = test system: Escherichia coli ATCC 25922
Klebsiella pneumoniae = test system: Klebsiella pneumoniae
[35] = test system: Pseudomonas aeruginosa ATCC 27853
[36] = test system: Pseudomonas aeruginosa CMCCB 1010
Pseudomonas aeruginosa = test system: Pseudomonas aeruginosa
Shigella dysenteriae = test system: Shigella dysenteriae
[37] = test system: Staphylococcus aureus ATCC 25923
Escherichia coli ML-35 = test system: Escherichia coli ML-35
[38] = test system: Salmonella enterica subsp. enterica serovar Typhimurium ATCC 14028
[39] = test system: Serratia marcescens ATCC 8100

MIC [1] | MIC [2] | MIC [3] | MIC [4] | MIC [5] | MIC [6] | MIC [7] | MIC [8] | MIC [9] | MIC [10] | MIC [11] | MIC [12] | MIC [13] | MIC [14] | MIC [15] | MIC [16] | MIC [17] | MIC [18] | MIC [19] | MIC [20] | Compound | further results
4 µM (≈ 9.98 µg/mL) | 4 µM (≈ 9.98 µg/mL) | 4 µM (≈ 9.98 µg/mL) | 4 µM (≈ 9.98 µg/mL) | 16 µM (≈ 39.9 µg/mL) | 2 µM (≈ 4.99 µg/mL) | 4 µM (≈ 9.98 µg/mL) | ≥ 32 µM | ≥ 32 µM | 2 µM (≈ 4.99 µg/mL) | 4 µM (≈ 9.98 µg/mL) | 2 µM (≈ 4.99 µg/mL) | 4 µM (≈ 9.98 µg/mL) | 4 µM (≈ 9.98 µg/mL) | 4 µM (≈ 9.98 µg/mL) | 4 µM (≈ 9.98 µg/mL) | 4 µM (≈ 9.98 µg/mL) | 8 µM (≈ 20 µg/mL) | 16 µM (≈ 39.9 µg/mL) | ≥ 32 µM | CC[C@H](C)[C@H](NC(=O)CNC(=O)[C@H](CCCN=C(N)N)NC(=O)[C@H](C)NC(=O)[C@@H](NC(=O)[C@H](Cc1cnc[nH]1)NC(=O)[C@H](Cc1cnc[nH]1)NC(=O)[C@H](Cc1ccccc1)NC(=O)[C@@H](N)Cc1ccccc1)[C@@H](C)CC)C(=O)N[C@H](C(=O)N[C@@H](Cc1cnc[nH]1)C(=O)N[C@H](C(=O)NCC(=O)N[C@@H](CCCCN)C(=O)N[C@H](C(=O)N[C@H](C(=O)N[C@@H](Cc1cnc[nH]1)C(=O)N[C@@H](CCCN=C(N)N)C(=O)N[C@@H](CC(C)C)C(=O)N[C@H](C(=O)N[C@H](C(=O)NCC(=O)O)[C@@H](C)O)C(C)C)[C@@H](C)CC)[C@@H](C)O)C(C)C)C(C)C [FFHHIARGIVHVGKTIHRLVTG] | MIC [21]: 16 µM (≈ 39.9 µg/mL); MIC [22]: 16 µM (≈ 39.9 µg/mL); MIC [23]: 16 µM (≈ 39.9 µg/mL); MIC [24]: ≥ 32 µM; MIC [25]: ≥ 32 µM; MIC [26]: 16 µM (≈ 39.9 µg/mL); MIC [27]: 16 µM (≈ 39.9 µg/mL); MIC [28]: 16 µM (≈ 39.9 µg/mL); MIC [29]: 4 µM (≈ 9.98 µg/mL); MIC [30]: 2 µM (≈ 4.99 µg/mL); MIC [31]: 4 µM (≈ 9.98 µg/mL); MIC [32]: 4 µM (≈ 9.98 µg/mL)
2 µM (≈ 5.11 µg/mL) | 2 µM (≈ 5.11 µg/mL) | 2 µM (≈ 5.11 µg/mL) | 2 µM (≈ 5.11 µg/mL) | 4 µM (≈ 10.2 µg/mL) | 1 µM (≈ 2.55 µg/mL) | 4 µM (≈ 10.2 µg/mL) | 16 µM (≈ 40.8 µg/mL) | 16 µM (≈ 40.8 µg/mL) | 4 µM (≈ 10.2 µg/mL) | 2 µM (≈ 5.11 µg/mL) | 2 µM (≈ 5.11 µg/mL) | 2 µM (≈ 5.11 µg/mL) | 2 µM (≈ 5.11 µg/mL) | 2 µM (≈ 5.11 µg/mL) | 2 µM (≈ 5.11 µg/mL) | 4 µM (≈ 10.2 µg/mL) | 8 µM (≈ 20.4 µg/mL) | 8 µM (≈ 20.4 µg/mL) | 16 µM (≈ 40.8 µg/mL) | CC[C@H](C)[C@H](NC(=O)CNC(=O)[C@H](CCCN=C(N)N)NC(=O)[C@H](Cc1ccccc1)NC(=O)[C@@H](NC(=O)[C@H](Cc1cnc[nH]1)NC(=O)[C@H](Cc1cnc[nH]1)NC(=O)[C@H](CCCCN)NC(=O)[C@@H](N)Cc1ccccc1)[C@@H](C)CC)C(=O)N[C@H](C(=O)N[C@@H](Cc1cnc[nH]1)C(=O)N[C@H](C(=O)NCC(=O)N[C@@H](CCCCN)C(=O)N[C@H](C(=O)N[C@H](C(=O)N[C@@H](Cc1cnc[nH]1)C(=O)N[C@@H](CCCN=C(N)N)C(=O)N[C@@H](CC(C)C)C(=O)N[C@H](C(=O)N[C@H](C(=O)NCC(=O)O)[C@@H](C)O)C(C)C)[C@@H](C)CC)[C@@H](C)O)C(C)C)C(C)C [FKHHIFRGIVHVGKTIHRLVTG] | MIC [21]: 16 µM (≈ 40.8 µg/mL); MIC [22]: 16 µM (≈ 40.8 µg/mL); MIC [23]: 8 µM (≈ 20.4 µg/mL); MIC [24]: 16 µM (≈ 40.8 µg/mL); MIC [25]: 16 µM (≈ 40.8 µg/mL); MIC [26]: 16 µM (≈ 40.8 µg/mL); MIC [27]: 16 µM (≈ 40.8 µg/mL); MIC [28]: 16 µM (≈ 40.8 µg/mL); MIC [29]: 4 µM (≈ 10.2 µg/mL); MIC [30]: 2 µM (≈ 5.11 µg/mL); MIC [31]: 2 µM (≈ 5.11 µg/mL); MIC [32]: 2 µM (≈ 5.11 µg/mL)
– | – | – | – | – | – | – | – | – | – | – | – | – | – | – | – | – | – | – | – | CC[C@H](C)[C@H](NC(=O)[C@H](CC(C)C)NC(=O)[C@@H](NC(=O)[C@@H](NC(=O)[C@H](C)NC(=O)[C@@H](NC(=O)[C@H](CC(N)=O)NC(=O)[C@H](CCCCN)NC(=O)[C@H](C)NC(=O)[C@@H](NC(=O)[C@H](CC(N)=O)NC(=O)[C@H](CCCCN)NC(=O)[C@H](C)NC(=O)[C@@H](NC(=O)[C@H](CC(=O)O)NC(=O)[C@H](CCSC)NC(=O)[C@H](Cc1ccccc1)NC(=O)CN)[C@@H](C)O)C(C)C)C(C)C)C(C)C)[C@@H](C)O)C(=O)N[C@@H](CC(=O)O)C(=O)N[C@@H](CCCCN)C(=O)N[C@@H](CC(C)C)C(=O)N[C@@H](CCCN=C(N)N)C(=O)N[C@H]1CSSC[C@@H](C(=O)O)NC(=O)CNC(=O)CNC(=O)[C@H]([C@@H](C)O)NC(=O)[C@H](C(C)C)NC(=O)[C@H](CCCCN)NC1=O [GFMDTAKNVAKNVAVTLIDKLRCKVTGGC] | MIC [33]: 20 µM (≈ 61 µg/mL); MIC [34]: 13 µM (≈ 39.7 µg/mL); MIC (Klebsiella pneumoniae): 50 µM (≈ 153 µg/mL); MIC [35]: 33 µM (≈ 101 µg/mL); MIC [36]: 20 µM (≈ 61 µg/mL); MIC (Pseudomonas aeruginosa): 50 µM (≈ 153 µg/mL); MIC (Shigella dysenteriae): ≥ 50 µM; MIC [37]: 20 µM (≈ 61 µg/mL)
– | – | – | – | – | – | – | – | – | – | – | – | – | – | – | – | – | – | – | – | CC[C@H](C)[C@H](NC(=O)[C@@H]1CCCN1C(=O)[C@H](CCCN=C(N)N)NC(=O)[C@@H]1CCCN1C(=O)CNC(=O)[C@@H]1CCCN1C(=O)[C@H](CCCN=C(N)N)NC(=O)[C@@H]1CCCN1C(=O)[C@H](Cc1ccccc1)NC(=O)[C@@H]1CCCN1C(=O)[C@H](CC(C)C)NC(=O)[C@@H]1CCCN1C(=O)[C@H](CCCN=C(N)N)NC(=O)[C@@H]1CCCN1)C(=O)O [PRPLPFPRPGPRPI] | MIC [34]: > 128 µM; MIC (Escherichia coli ML-35): ≥ 128 µM; MIC [38]: > 128 µM; MIC [39]: ≥ 128 µM; MIC [37]: > 128 µM
